Experiment [1] is described as follows: Ferric-reducing antioxidant power (FRAP) assay. As to conditions: concentration indicating 0.50 absorbance, 700 nm; maximum tested 200 µg/mL.
Experimental: The ferric-reducing antioxidant power (FRAP) assay was carried out according to [119]. The reaction mixture contained 10 μL of the extracts, 40 µL phosphate buffer (pH 6.6), and 50 μL potassium ferricyanide K3[Fe (CN)6] (1%), was incubated at 50 °C for 20 min, then 50 µL of trichloroacetic acid (TCA) (10%) and 40 µL of distilled water and 10 µL of ferric chloride FeCl3 (0.1%) were added. Then, the absorbance was measured at 700 nm using a microplate reader of type PerkinElmer (Enspire) against a blank. Tannic acid, α-tocopherol, and ascorbic acid were used as references.
The results of the tests carried out are expressed as an average ± SD of analyses in three tests. […] The one-way analysis of variance ANOVA was used to detect significant differences (p < 0.05).
A short description of experiment [2]: ABTS+ scavenging activity. Particulars: 10 min, 734 nm. The procedure:
The ABTS•+ assay (2, 2′-azino-bis (3-ethylbenzthiazoline-6-sulfonic acid)) was carried out according to the method with some modifications. The ABTS+ reagent was prepared as follows: 19.2 mg of ABTS (7 mM) in 5 mL distilled water was mixed with 3.3 mg of Potassium persulfate K2S2O8 (2.45 mM) in 5 mL distilled water, and the mixture was incubated for 16 h in the dark before use. We have added 160 µL of ABTS+ reagent to 40 μL of extract solutions. After 10 min of incubation, the absorbance was read at 734 nm using a microplate reader of type PerkinElmer (Enspire). BHA and BHT were used as references. The total antioxidant activity of the extracts was calculated as follows:(4) ABTS^+scavenging effect (%)=AControl−ASample/AControl×100
(§1) The results of the tests carried out are expressed as an average ± SD of analyses in three tests. The values of IC50 (50% inhibition concentration) and A0.5 (the concentration indicating 0.50 absorbance) are calculated using the linear regression method from the two curves: [% inhibition = f (concentration)] for IC50 and [Absorbance = f (concentration)] for A0.5. All the antioxidant and enzymatic tests were carried out at more than four concentration values. The one-way analysis of variance ANOVA was used to detect significant differences (p < 0.05).

Experiment [3] is described as follows: DPPH radical scavenging assay. Particulars: 30 min, 517 nm. Here is the method: The ability of radical scavenging was determined according to [118], using the radical DPPH• (2,2-diphenyl-1-picrylhydrazyl). 160 µL of DPPH solution (0.15 mM) was added to 40 µL of the diluted extracts in methanol and incubated in the dark. After 30 min of incubation, the absorbances were measured at 517 nm by a microplate reader of type PerkinElmer (Enspire) against a blank. BHA, BHT, and α-tocopherol were used as reference antioxidants. DPPH inhibition percentage was calculated using the following equation:(3) Inhibition(%)=A0−As/A0×100 where A0 is the absorbance of the control (without the sample) and As is the absorbance of the tested samples. The antioxidant activity of the extracts and standards was expressed as IC50 (the concentration of the tested samples that inhibits 50% of DPPH radicals).
as §1
(In general: Loss of DPPH colour is used to gauge radical scavenging.)

As for `O=C1O[C@H]([C@@H](O)CO)C(O)=C1O` [Ascorbic acid], the “FRAP A0.5” value in experiment [1] is 6.77 ± 1.15 µg/mL.
With `COc1ccc(O)c(C(C)(C)C)c1` [BHA, Butylated hydroxyanisole], the “ABTS Inhibition IC50” value in experiment [2] was found to be 1.81 ± 0.10 µg/mL. In addition, in experiment [3], the “DPPH Inhibition IC50” value was 6.14 ± 0.41 µg/mL.
The matching figures for `Cc1cc(C(C)(C)C)c(O)c(C(C)(C)C)c1` [BHT, hydroxytoluene]: 1.29 ± 0.30 µg/mL and 12.99 ± 0.41 µg/mL.
For the compound Tannic acid, the “FRAP A0.5” value in experiment [1] is 5.39 ± 0.91 µg/mL.

(Values after paper PMC10708475, “HPLC-DAD-MS Characterization, Antioxidant Activity, α-amylase Inhibition, Molecular Docking, and ADMET of Flavonoids from Fenugreek Seeds” (Molecules, 2023).)
